Reference: PubChem BioAssay AID192 (DTP/NCI, 2004)
Where “and” joins values, the source holds several entries; their conditions need not be identical. Equal entries are not always repeated. Toxic doses and inconclusive results are not listed.

Tested on: BDF1 mice, B16 melanoma ip, median survival T/C
Assay: NCI In Vivo Anticancer Drug Screen. Data for tumor model B16 Melanoma (intraperitoneal) in B6D2F1 (BDF1) mice
Conditions: endpoint: median survival time, higher = longer survival
How it was run: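 Vehicle-treated animals serve as the reference (C); treated animals (T) are scored for survival or tumor size after tumor transplantation.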

[1] = dose: 100.0 mg/kg/injection, schedule: Q01DX009 (ip), vehicle: Klucel (hydroxypropylcellulose) (HPC)
[2] = dose: 200.0 mg/kg/injection, schedule: Q01DX009 (ip), vehicle: Klucel (hydroxypropylcellulose) (HPC)
[3] = dose: 400.0 mg/kg/injection, schedule: Q01DX009 (ip), vehicle: Klucel (hydroxypropylcellulose) (HPC)
[4] = dose: 25.0 mg/kg/injection, schedule: Q01DX009 (ip), vehicle: water
[5] = dose: 100.0 mg/kg/injection, schedule: Q01DX009 (ip), vehicle: saline with Tween-80
[6] = dose: 200.0 mg/kg/injection, schedule: Q01DX009 (ip), vehicle: saline with Tween-80
[7] = dose: 400.0 mg/kg/injection, schedule: Q01DX009 (ip), vehicle: saline with Tween-80
[8] = dose: 6.25 mg/kg/injection, schedule: Q01DX009 (ip), vehicle: saline with Tween-80
[9] = dose: 12.5 mg/kg/injection, schedule: Q01DX009 (ip), vehicle: saline with Tween-80
[10] = dose: 25.0 mg/kg/injection, schedule: Q01DX009 (ip), vehicle: saline
[11] = dose: 50.0 mg/kg/injection, schedule: Q01DX009 (ip), vehicle: saline
[12] = dose: 100.0 mg/kg/injection, schedule: Q01DX009 (ip), vehicle: saline
[13] = dose: 200.0 mg/kg/injection, schedule: Q01DX009 (ip), vehicle: saline
[14] = dose: 50.0 mg/kg/injection, schedule: Q01DX009 (ip), vehicle: saline with Tween-80
[15] = dose: 25.0 mg/kg/injection, schedule: Q01DX009 (ip), vehicle: saline with Tween-80

With `C=CCNCCN1CCN(CCCN2c3ccccc3Sc3ccc(C(F)(F)F)cc32)CC1` the T/C (dose: 6.25 mg/kg/injection, schedule: Q01DX009 (ip), vehicle: saline) was 105 % of control, the T/C (dose: 9.37 mg/kg/injection, schedule: Q04DX003 (ip), vehicle: saline) was 100 % of control and the T/C (dose: 12.5 mg/kg/injection, schedule: Q01DX009 (ip), vehicle: saline) was 110 % of control. For the same molecule, the T/C (dose: 18.75 mg/kg/injection, schedule: Q04DX003 (ip), vehicle: saline) was 97 % of control and the T/C (dose: 55.0 mg/kg/injection, schedule: Q04DX003 (ip), vehicle: saline) was 91 % of control.

With `O=C(Nc1ccccc1)OCC(Cl)(Cl)Cl` the T/C [1] was 114 % of control, the T/C [2] was 108 % of control and the T/C [3] was 102 % of control.

With `NNC(=O)c1ccccn1` the T/C [4] was 106 % of control and the T/C (dose: 50.0 mg/kg/injection, schedule: Q01DX009 (ip), vehicle: water) was 113 % of control.

In the case of `O=C(OCC(COC(=O)c1ccccc1)(COC(=O)c1ccccc1)COC(=O)c1ccccc1)c1ccccc1`, the T/C [1] is reported as 111 % of control, the T/C [2] is reported as 102 % of control and the T/C [3] is reported as 92 % of control.

`Cc1ccc(S(=O)(=O)N(C)C)cc1N` was tested, and the T/C [5] was 97 % of control, the T/C (dose: 100.0 mg/kg/injection, schedule: Q04DX003 (ip), vehicle: saline with Tween-80) was 100 % of control and the T/C [6] was 118 % of control. The T/C (dose: 200.0 mg/kg/injection, schedule: Q04DX003 (ip), vehicle: saline with Tween-80) was 102 % of control, the T/C [7] was 102 % of control and the T/C (dose: 400.0 mg/kg/injection, schedule: Q04DX003 (ip), vehicle: saline with Tween-80) was 100 % of control.

In the case of `CCC1CCCCN1C(=S)N/N=C(\C)c1ccccn1` (stereo not drawn), the T/C [8] is reported as 96 % of control and the T/C [9] is reported as 95 % of control.

For `Clc1cc(Cl)c(C[N+]23CN4CN(CN(C4)C2)C3)cc1Cl`, the T/C [10] was 117 % of control, the T/C [11] was 108 % of control and the T/C [12] was 111 % of control. For the same molecule, the T/C [13] was 122 % of control.

`Cc1ccc(S(=O)(=O)Oc2ccc(-c3ccc(OS(=O)(=O)c4ccc(C)cc4)cc3)cc2)cc1` was tested, and the T/C [14] was 105 % of control and the T/C [5] was 90 % of control.

For `CC(C)=CCC1=C(O)c2ccccc2C(=O)C1=O`, the T/C [8] was 90 % of control, the T/C (dose: 8.33 mg/kg/injection, schedule: Q#B X027 (ip), vehicle: water) was 100 % of control and the T/C [9] was 90 % of control. For the same molecule, the T/C (dose: 16.66 mg/kg/injection, schedule: Q#B X027 (ip), vehicle: water) was 103 % of control, the T/C (dose: 16.66 mg/kg/injection, schedule: Q#B X027 (sc), vehicle: water) was 106 % of control and the T/C (dose: 25.0 mg/kg/injection, schedule: Q#A X018 (oral), vehicle: water) was 90 % of control. For the same molecule, the T/C (dose: 33.33 mg/kg/injection, schedule: Q#B X027 (ip), vehicle: water) was 100 % of control, the T/C (dose: 33.33 mg/kg/injection, schedule: Q#B X027 (oral), vehicle: water) was 100 % of control and the T/C (dose: 33.33 mg/kg/injection, schedule: Q#B X027 (sc), vehicle: water) was 106 % of control. The T/C [14] was 88 % of control and 97 % of control, the T/C (dose: 50.0 mg/kg/injection, schedule: Q#A X018 (oral), vehicle: water) was 86 % of control and the T/C (dose: 66.66 mg/kg/injection, schedule: Q#B X027 (ip), vehicle: water) was 96 % of control. For the same molecule, the T/C (dose: 66.66 mg/kg/injection, schedule: Q#B X027 (oral), vehicle: water) was 106 % of control, the T/C (dose: 66.66 mg/kg/injection, schedule: Q#B X027 (sc), vehicle: water) was 93 % of control and the T/C [5] was 95 % of control. The T/C (dose: 100.0 mg/kg/injection, schedule: Q01DX018 (oral), vehicle: water) was 106 % of control, the T/C (dose: 100.0 mg/kg/injection, schedule: Q#A X018 (oral), vehicle: water) was 100 % of control and the T/C (dose: 133.33 mg/kg/injection, schedule: Q#B X027 (oral), vehicle: water) was 120 % of control. For the same molecule, the T/C (dose: 133.33 mg/kg/injection, schedule: Q#B X027 (sc), vehicle: water) was 93 % of control, the T/C (dose: 175.0 mg/kg/injection, schedule: Q01DX018 (oral), vehicle: water) was 96 % of control and the T/C (dose: 175.0 mg/kg/injection, schedule: Q#A X018 (oral), vehicle: water) was 113 % of control. The T/C [6] was 95 % of control, the T/C [13] was 119 % of control and the T/C (dose: 250.0 mg/kg/injection, schedule: Q01DX018 (oral), vehicle: water) was 106 % of control. For the same molecule, the T/C (dose: 250.0 mg/kg/injection, schedule: Q#A X018 (oral), vehicle: water) was 106 % of control and the T/C (dose: 325.0 mg/kg/injection, schedule: Q01DX018 (oral), vehicle: water) was 113 % of control.

For `COC(=O)[c-]1[c-][c-][c-][c-]1.COC(=O)[c-]1[c-][c-][c-][c-]1.[Fe]`, the T/C (dose: 18.0 mg/kg/injection, schedule: Q01DX009 (ip), vehicle: Klucel (hydroxypropylcellulose) (HPC)) was 95 % of control and 103 % of control, the T/C (dose: 28.75 mg/kg/injection, schedule: Q01DX009 (ip), vehicle: Klucel (hydroxypropylcellulose) (HPC)) was 104 % of control and 106 % of control and the T/C (dose: 33.75 mg/kg/injection, schedule: Q04DX003 (ip), vehicle: Klucel (hydroxypropylcellulose) (HPC)) was 114 % of control. For the same molecule, the T/C (dose: 45.0 mg/kg/injection, schedule: Q01DX009 (ip), vehicle: Klucel (hydroxypropylcellulose) (HPC)) was 103 % of control and 118 % of control and the T/C (dose: 67.5 mg/kg/injection, schedule: Q04DX003 (ip), vehicle: Klucel (hydroxypropylcellulose) (HPC)) was 92 % of control.

`CP(=S)(c1ccccc1)P(C)(=S)c1ccccc1` (stereo not drawn) was tested, and the T/C [2] was 119 % of control.

`CC1=CC(=O)[C@@H](O)[C@]2(C)[C@H]3[C@@]4(O)OC[C@]35[C@H]([C@@H](C)[C@H]4O)[C@@H](OC(=O)c3ccccc3)C(=O)O[C@@H]5C[C@@H]12` was tested, and the T/C (dose: 0.25 mg/kg/injection, schedule: Q01DX009 (ip), vehicle: saline with Tween-80) was 118 % of control and the T/C (dose: 2.0 mg/kg/injection, schedule: Q01DX009 (ip), vehicle: saline with Tween-80) was 171 % of control.

With `NC(=O)CCC(N)C(=O)O.[Cl-].[Cl-].[Cl-].[Cl-].[Pt+2]` (stereo not drawn) the T/C (dose: 1.56 mg/kg/injection, schedule: Q01DX009 (ip), vehicle: water) was 110 % of control, the T/C (dose: 3.13 mg/kg/injection, schedule: Q01DX009 (ip), vehicle: water) was 110 % of control and the T/C (dose: 12.5 mg/kg/injection, schedule: Q01DX009 (ip), vehicle: water) was 120 % of control. The T/C [4] was 112 % of control.

With `CC(N)C(=O)NC(C(=O)O)C(C)O` (stereo not drawn) the T/C [10] was 92 % of control, the T/C [11] was 100 % of control and the T/C [12] was 97 % of control. The T/C [13] was 102 % of control and the T/C (dose: 400.0 mg/kg/injection, schedule: Q01DX009 (ip), vehicle: saline) was 105 % of control.

In the case of `O=P(O)(O)OCC(O)CCl` (stereo not drawn), the T/C [11] is reported as 110 % of control, the T/C [12] is reported as 103 % of control and the T/C [13] is reported as 103 % of control.

With `COc1ccc2nc3cc(Cl)ccc3c(NCCO)c2c1` the T/C (dose: 37.5 mg/kg/injection, schedule: Q01DX009 (ip), vehicle: saline with Tween-80) was 104 % of control and the T/C (dose: 75.0 mg/kg/injection, schedule: Q01DX009 (ip), vehicle: saline with Tween-80) was 106 % of control.

For `Cc1ccc(Cl)cc1NS(=O)(=O)c1cccc([N+](=O)[O-])c1`, the T/C [14] was 111 % of control, the T/C [5] was 107 % of control and the T/C [6] was 100 % of control.

In the case of `CC(=O)Nc1ccc(S(=O)(=O)CO)cc1`, the T/C [9] is reported as 97 % of control and 110 % of control, the T/C [15] is reported as 100 % of control and 114 % of control and the T/C [14] is reported as 95 % of control and 96 % of control. The T/C [5] was 92 % of control and 115 % of control, the T/C [6] was 90 % of control and 110 % of control and the T/C [7] was 89 % of control and 99 % of control.

In the case of `COc1ccc(Cl)cc1NC(=O)c1ccccc1Cl`, the T/C [1] is reported as 102 % of control, the T/C [2] is reported as 108 % of control and the T/C [3] is reported as 100 % of control.

With `CC(=O)C1=C(C)NC(C)=C(C(C)=O)C1c1cccc([N+](=O)[O-])c1` the T/C [15] was 94 % of control, the T/C [14] was 94 % of control and the T/C [5] was 97 % of control.

`N#CC(C#N)=C/C=C/c1cccc([N+](=O)[O-])c1` was tested, and the T/C (dose: 3.12 mg/kg/injection, schedule: Q01DX009 (ip), vehicle: Klucel (hydroxypropylcellulose) (HPC)) was 110 % of control, the T/C (dose: 6.25 mg/kg/injection, schedule: Q01DX009 (ip), vehicle: Klucel (hydroxypropylcellulose) (HPC)) was 104 % of control and the T/C (dose: 12.5 mg/kg/injection, schedule: Q01DX009 (ip), vehicle: Klucel (hydroxypropylcellulose) (HPC)) was 115 % of control.
